Test results reported in ChEMBL document CHEMBL4311992, “Discovery of 3-(((9H-purin-6-yl)amino)methyl)-4,6-dimethylpyridin-2(1H)-one derivatives as novel tubulin polymerization inhibitors for treatment of cancer” (Eur J Med Chem, 2019).
Active and inactive are the calls of the source. No cut-off for these calls is given here.

Columns and labels:
[1] = molecular target: BDNF/NT-3 growth factors receptor (Homo sapiens) (UniProt Q16620); assay: Inhibition of human TrkB (455 to end residues) using poly(Glu, Tyr) 4:1 as substrate measured after 40 mins in presence of [gamma33P]ATP by scintillation counting method; design: scale not given: the % may be the effect or the level left
[2] = system: TGF-beta receptor type-1 (Homo sapiens), P36897 [T204D]; assay: Inhibition of human TGFBR1 T204D mutant (200 to end residues) using casein as substrate measured after 40 mins in presence of [gamma33P]ATP by scintillation counting method; design: scale not given: the % may be the effect or the level left
[3] = molecular target: Serine/threonine-protein kinase SIK1 (Homo sapiens) (UniProt P57059); assay: Inhibition of human SIK (1 to 281 residues) using AMARAASAAALARRR as substrate measured after 40 mins in presence of [gamma33P]ATP by scintillation counting method; design: scale not given: the % may be the effect or the level left
[4] = molecular target: Mitogen-activated protein kinase 13 (Homo sapiens) (UniProt O15264); assay: Inhibition of recombinant full-length human SAPK4 assessed as residual activity at 10 uM using myelin basic protein as substrate measured after 40 mins in presence of [gamma33P]ATP by scintillation counting method
[5] = system: Hepatocyte growth factor receptor (Homo sapiens), P08581 [M1250T]; assay: Inhibition of recombinant human MET A1209G/V1290L/M1268T mutant (974 to end residues) assessed as residual activity at 10 uM using KKKGQEEEYVFIE as substrate measured after 40 mins in presence of [gamma33P]ATP by scintillation counting method
[6] = molecular target: Hepatocyte growth factor receptor (Homo sapiens) (UniProt P08581); assay: Inhibition of recombinant human MET A1209G/V1290L mutant (974 to end residues) assessed as residual activity at 10 uM using KKKGQEEEYVFIE as substrate measured after 40 mins in presence of [gamma33P]ATP by scintillation counting method
[7] = molecular target: Cyclin-dependent kinase 13/Cyclin-K (Homo sapiens) (UniProt Q14004+O75909); assay: Inhibition of recombinant full length human CDK13/cyclinK assessed as residual activity at 10 uM using RSRSRSRSRSRSRSR as substrate measured after 120 mins in presence of [gamma33P]ATP by scintillation counting method; format: protein-complex assay
Mus musculus = organism: Mus musculus; assay: Inhibition of recombinant full-length mouse PI3K p110alpha/p85alpha H1047R mutant assessed as residual activity at 10 uM using phosphatidylinositol-4, 5-bisphosphate as substrate measured after 40 mins by HTRF assay
[8] = molecular target: Inhibitor of nuclear factor kappa-B kinase subunit epsilon (Homo sapiens) (UniProt Q14164); assay: Inhibition of recombinant full-length human IKKepsilon assessed as residual activity at 10 uM using casein as substrate measured after 40 mins in presence of [gamma33P]ATP by scintillation counting method
[9] = molecular target: Calcium/calmodulin-dependent protein kinase type II subunit beta (Homo sapiens) (UniProt Q13554); assay: Inhibition of recombinant full-length human CaMK2beta (1 to 315 residues) assessed as residual activity at 10 uM using calmodulin as substrate measured after 40 mins in presence of [gamma33P]ATP by scintillation counting method
[10] = system: Calcium/calmodulin-dependent protein kinase kinase 2 (Homo sapiens), Q96RR4 [T85S]; assay: Inhibition of recombinant full-length human CAMKk2 T85S mutant assessed as residual activity at 10 uM using calmodulin as substrate measured after 40 mins in presence of [gamma33P]ATP by scintillation counting method
SW-620 [11] = assay: Cell cycle arrest in human SW620 cells assessed as up regulation of CDK1 expression up to 150 nM after 24 hrs by Western blot analysis; format: functional, cell-based
SW-620 [12] = assay: Induction of apoptosis in human SW620 cells measured after 48 hrs by Annexin V-FITC/propidium iodide staining-based flow cytometric analysis; format: functional, cell-based
[13] = molecular target: Serine/threonine-protein kinase DCLK3 (Homo sapiens) (UniProt Q9C098); assay: Inhibition of recombinant human DCAMKL3 (345 to end residues) assessed as residual activity at 10 uM using KKLNRTLSFAEPG as substrate measured after 40 mins in presence of [gamma33P]ATP by scintillation counting method
[14] = system: eIF-2-alpha kinase GCN2 (Homo sapiens), Q9P2K8 [E556G]; assay: Inhibition of recombinant full-length human GCN2 E556G mutant assessed as residual activity at 10 uM using RSRSRSRSRSRSRSR as substrate measured after 40 mins in presence of [gamma33P]ATP by scintillation counting method
[15] = molecular target: Tyrosine-protein kinase HCK (Homo sapiens) (UniProt P08631); assay: Inhibition of recombinant human HCK (230 to 497 residues) assessed as residual activity at 10 uM using Cdc2 peptide as substrate measured after 40 mins in presence of [gamma33P]ATP by scintillation counting method
[16] = molecular target: Mitogen-activated protein kinase 10 (Homo sapiens) (UniProt P53779); assay: Inhibition of recombinant full-length human JNK3 assessed as residual activity at 10 uM using peptide substrate measured after 40 mins in presence of [gamma33P]ATP by scintillation counting method
[17] = molecular target: Leukocyte tyrosine kinase receptor (Homo sapiens) (UniProt P29376); assay: Inhibition of recombinant human LTK (450 to end residues) assessed as residual activity at 10 uM using GEEPLYWSFPAKKK as substrate measured after 40 mins in presence of [gamma33P]ATP by scintillation counting method
[18] = molecular target: Serine/threonine-protein kinase N2 (Homo sapiens) (UniProt Q16513); assay: Inhibition of human PRK2 (501 to end residues) using AKRRRLSSLRA as substrate measured after 40 mins in presence of [gamma33P]ATP by scintillation counting method; design: scale not given: the % may be the effect or the level left
[19] = molecular target: Serine/threonine-protein kinase TAO2 (Homo sapiens) (UniProt Q9UL54); assay: Inhibition of human TAO2 (1 to 320 residues) using myelin basic protein as substrate measured after 40 mins in presence of [gamma33P]ATP by scintillation counting method; design: scale not given: the % may be the effect or the level left
[20] = molecular target: Serine/threonine-protein kinase WNK2 (Homo sapiens) (UniProt Q9Y3S1); assay: Inhibition of human WNK2 (166 to 489 residues) using myelin basic protein as substrate measured after 40 mins in presence of [gamma33P]ATP by scintillation counting method; design: scale not given: the % may be the effect or the level left
[21] = molecular target: Phosphatidylinositol 3-kinase C2 domain-containing subunit gamma (Homo sapiens) (UniProt O75747); assay: Inhibition of recombinant human PI3KC2gamma (468 to 1203 residues) assessed as residual activity at 10 uM using phosphatidylinositol as substrate measured after 40 mins by HTRF assay
[22] = Toxicity in nude BALB/c mouse assessed as change in RBC level at 40 to 80 mg/kg, po once daily for 4 weeks measured post-last dose; format: organism-based; conditions: in vivo, 672 h
HCT-116 [23] = assay: Induction of apoptosis in human HCT116 cells assessed as viable cells at 100 nM measured after 48 hrs by Annexin V-FITC/propidium iodide staining-based flow cytometry (reference value: 94.5%); format: functional; conditions: HCT-116, 48 h, read-out: Activity
HCT-116 [24] = assay: Induction of apoptosis in human HCT116 cells assessed as late apoptotic cells at 50 nM measured after 48 hrs by Annexin V-FITC/propidium iodide staining-based flow cytometry (reference value: 3.87%); format: functional

Sequence of Mitogen-activated protein kinase 13 (Homo sapiens) (O15264 whole entry): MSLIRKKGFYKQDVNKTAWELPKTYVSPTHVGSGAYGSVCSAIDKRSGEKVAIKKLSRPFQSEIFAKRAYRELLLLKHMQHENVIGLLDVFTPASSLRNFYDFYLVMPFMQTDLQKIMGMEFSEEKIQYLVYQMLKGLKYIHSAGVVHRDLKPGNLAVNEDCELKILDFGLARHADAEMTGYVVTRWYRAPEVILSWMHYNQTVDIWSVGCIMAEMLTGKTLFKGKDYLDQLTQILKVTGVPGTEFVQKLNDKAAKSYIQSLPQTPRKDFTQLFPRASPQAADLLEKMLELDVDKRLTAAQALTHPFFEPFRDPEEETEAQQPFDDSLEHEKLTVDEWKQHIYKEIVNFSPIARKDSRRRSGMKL
Sequence of BDNF/NT-3 growth factors receptor (Homo sapiens) (Q16620 32-822 limits assumed): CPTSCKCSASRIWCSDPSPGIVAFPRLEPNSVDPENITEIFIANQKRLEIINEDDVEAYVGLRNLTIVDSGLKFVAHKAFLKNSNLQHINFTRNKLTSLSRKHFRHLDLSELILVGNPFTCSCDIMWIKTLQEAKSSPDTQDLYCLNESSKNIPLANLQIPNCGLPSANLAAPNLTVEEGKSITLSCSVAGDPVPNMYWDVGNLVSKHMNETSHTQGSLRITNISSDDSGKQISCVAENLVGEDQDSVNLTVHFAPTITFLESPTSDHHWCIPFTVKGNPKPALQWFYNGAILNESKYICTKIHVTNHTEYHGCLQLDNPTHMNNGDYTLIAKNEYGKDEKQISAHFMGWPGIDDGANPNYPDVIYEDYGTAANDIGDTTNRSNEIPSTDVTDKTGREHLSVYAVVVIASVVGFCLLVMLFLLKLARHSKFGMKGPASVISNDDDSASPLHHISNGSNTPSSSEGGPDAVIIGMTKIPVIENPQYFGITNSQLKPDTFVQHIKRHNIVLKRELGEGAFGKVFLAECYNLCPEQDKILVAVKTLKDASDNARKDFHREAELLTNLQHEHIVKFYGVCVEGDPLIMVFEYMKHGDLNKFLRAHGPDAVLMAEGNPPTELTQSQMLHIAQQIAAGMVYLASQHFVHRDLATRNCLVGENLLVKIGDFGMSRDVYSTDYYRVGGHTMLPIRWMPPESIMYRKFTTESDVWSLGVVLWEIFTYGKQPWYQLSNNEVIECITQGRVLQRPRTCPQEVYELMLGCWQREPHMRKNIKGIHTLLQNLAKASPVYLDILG
Sequence of Leukocyte tyrosine kinase receptor (Homo sapiens) (P29376 whole entry): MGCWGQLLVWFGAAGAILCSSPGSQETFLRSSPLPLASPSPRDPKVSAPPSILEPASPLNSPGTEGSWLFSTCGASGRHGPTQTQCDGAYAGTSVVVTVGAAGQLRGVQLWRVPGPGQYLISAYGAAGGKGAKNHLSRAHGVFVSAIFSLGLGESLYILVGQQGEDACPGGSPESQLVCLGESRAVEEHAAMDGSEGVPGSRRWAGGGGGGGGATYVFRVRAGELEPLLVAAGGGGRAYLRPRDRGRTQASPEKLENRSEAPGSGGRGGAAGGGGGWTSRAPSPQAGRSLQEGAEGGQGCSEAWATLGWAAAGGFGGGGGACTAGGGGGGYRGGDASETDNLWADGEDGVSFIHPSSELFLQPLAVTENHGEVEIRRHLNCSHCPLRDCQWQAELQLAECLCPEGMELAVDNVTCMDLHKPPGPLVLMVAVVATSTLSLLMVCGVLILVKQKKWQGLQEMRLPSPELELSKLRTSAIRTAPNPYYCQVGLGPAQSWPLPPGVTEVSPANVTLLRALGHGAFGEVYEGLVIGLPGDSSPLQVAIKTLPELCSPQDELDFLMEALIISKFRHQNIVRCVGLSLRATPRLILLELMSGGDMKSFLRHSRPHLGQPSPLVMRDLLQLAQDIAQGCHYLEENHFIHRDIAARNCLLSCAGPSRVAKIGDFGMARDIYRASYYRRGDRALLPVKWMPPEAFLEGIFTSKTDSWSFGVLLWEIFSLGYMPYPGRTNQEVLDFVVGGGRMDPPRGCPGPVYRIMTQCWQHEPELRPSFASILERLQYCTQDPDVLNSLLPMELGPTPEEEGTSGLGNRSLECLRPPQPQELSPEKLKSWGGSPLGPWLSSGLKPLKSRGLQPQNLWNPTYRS
Sequence of Inhibitor of nuclear factor kappa-B kinase subunit epsilon (Homo sapiens) (Q14164 whole entry, the tested form may be a part): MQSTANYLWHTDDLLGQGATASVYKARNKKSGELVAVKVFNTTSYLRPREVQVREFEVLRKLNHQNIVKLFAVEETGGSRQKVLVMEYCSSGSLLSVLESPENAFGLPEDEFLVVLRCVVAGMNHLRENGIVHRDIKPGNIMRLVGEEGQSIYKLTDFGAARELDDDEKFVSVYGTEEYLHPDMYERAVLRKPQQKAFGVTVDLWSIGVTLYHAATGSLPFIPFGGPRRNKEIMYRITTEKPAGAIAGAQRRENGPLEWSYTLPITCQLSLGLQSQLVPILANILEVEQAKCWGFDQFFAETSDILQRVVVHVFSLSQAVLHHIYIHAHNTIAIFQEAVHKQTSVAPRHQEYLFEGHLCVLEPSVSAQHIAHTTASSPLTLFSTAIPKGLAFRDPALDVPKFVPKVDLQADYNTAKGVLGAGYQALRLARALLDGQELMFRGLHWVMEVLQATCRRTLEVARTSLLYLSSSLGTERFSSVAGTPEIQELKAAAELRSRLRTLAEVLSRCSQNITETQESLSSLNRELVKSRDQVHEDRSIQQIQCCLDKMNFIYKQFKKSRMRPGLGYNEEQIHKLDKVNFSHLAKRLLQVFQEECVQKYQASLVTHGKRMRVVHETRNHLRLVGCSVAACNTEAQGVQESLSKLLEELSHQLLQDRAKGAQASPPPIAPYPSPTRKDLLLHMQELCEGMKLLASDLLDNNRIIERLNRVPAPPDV
Sequence of Tyrosine-protein kinase HCK (Homo sapiens) (P08631 2-526 limits assumed): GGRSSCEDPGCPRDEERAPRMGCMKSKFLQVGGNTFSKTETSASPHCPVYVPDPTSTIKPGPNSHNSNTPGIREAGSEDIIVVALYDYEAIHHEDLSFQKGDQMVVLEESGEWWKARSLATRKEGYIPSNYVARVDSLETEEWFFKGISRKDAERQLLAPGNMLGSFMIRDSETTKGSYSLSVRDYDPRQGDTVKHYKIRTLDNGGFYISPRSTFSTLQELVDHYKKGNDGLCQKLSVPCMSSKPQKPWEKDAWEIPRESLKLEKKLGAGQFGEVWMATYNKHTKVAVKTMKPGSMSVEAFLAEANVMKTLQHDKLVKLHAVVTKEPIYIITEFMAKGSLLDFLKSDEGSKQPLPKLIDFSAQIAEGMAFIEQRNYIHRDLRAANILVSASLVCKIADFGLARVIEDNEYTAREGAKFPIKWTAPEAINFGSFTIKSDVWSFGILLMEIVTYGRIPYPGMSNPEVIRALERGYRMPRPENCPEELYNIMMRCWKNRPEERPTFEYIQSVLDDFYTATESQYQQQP
Sequence of Calcium/calmodulin-dependent protein kinase type II subunit beta (Homo sapiens) (Q13554 whole entry, the tested form may be a part): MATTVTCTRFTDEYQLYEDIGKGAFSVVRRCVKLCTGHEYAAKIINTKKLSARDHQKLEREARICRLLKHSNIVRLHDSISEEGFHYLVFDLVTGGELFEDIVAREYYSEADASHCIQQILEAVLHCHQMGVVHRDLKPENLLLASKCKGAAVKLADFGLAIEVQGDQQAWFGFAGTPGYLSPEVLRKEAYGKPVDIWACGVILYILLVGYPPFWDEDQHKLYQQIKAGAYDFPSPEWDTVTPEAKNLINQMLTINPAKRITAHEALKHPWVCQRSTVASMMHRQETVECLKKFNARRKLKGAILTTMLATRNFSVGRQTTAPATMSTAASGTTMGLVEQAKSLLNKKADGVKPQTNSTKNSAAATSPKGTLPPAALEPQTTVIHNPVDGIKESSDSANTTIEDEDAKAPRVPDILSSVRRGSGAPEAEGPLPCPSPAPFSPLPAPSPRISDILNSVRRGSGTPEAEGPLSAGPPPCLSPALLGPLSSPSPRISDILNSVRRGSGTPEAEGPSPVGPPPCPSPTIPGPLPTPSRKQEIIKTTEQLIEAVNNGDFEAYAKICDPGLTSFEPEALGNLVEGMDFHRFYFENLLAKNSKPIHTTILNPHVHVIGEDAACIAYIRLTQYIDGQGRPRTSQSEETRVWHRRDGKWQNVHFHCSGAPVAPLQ
Sequence of Serine/threonine-protein kinase N2 (Homo sapiens) (Q16513 whole entry, looked up, the tested form may be a part): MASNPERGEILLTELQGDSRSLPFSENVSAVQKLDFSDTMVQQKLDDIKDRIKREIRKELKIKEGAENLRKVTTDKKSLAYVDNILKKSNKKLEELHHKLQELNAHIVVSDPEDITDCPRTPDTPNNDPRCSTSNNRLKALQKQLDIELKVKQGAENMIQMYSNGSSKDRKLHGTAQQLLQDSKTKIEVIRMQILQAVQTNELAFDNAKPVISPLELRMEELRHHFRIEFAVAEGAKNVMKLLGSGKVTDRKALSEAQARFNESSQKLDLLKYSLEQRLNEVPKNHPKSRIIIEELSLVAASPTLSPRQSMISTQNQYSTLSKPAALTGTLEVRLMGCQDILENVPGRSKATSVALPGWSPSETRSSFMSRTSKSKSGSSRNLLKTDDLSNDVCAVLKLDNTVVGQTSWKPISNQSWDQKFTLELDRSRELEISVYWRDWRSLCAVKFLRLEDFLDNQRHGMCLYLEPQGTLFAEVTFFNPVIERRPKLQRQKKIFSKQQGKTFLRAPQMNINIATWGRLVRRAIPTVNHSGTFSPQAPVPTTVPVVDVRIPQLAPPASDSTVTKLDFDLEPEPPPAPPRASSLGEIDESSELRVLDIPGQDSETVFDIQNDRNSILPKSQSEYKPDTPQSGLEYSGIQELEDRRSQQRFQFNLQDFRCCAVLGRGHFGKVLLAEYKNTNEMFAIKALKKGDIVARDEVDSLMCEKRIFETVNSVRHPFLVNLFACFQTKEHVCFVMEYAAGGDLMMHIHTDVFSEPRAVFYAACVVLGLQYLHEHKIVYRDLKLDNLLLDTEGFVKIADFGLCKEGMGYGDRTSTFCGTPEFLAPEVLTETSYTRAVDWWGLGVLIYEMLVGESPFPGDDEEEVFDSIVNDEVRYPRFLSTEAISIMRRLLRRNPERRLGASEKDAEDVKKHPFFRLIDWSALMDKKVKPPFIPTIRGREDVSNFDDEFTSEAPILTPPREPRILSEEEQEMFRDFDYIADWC

For `Cc1cc(C)c(CNc2nc(Cl)nc3c2ncn3C2CCCC2)c(=O)[nH]1`, the Activity [1] was 126%, the Activity [2] was 98% and the Activity [3] was 104%. It also gave an Activity [4] of 96.5%, an Activity [5] of 105% and an Activity [6] of 80%. The Activity [7] was 97%, the Activity (Mus musculus) was 99% and the Activity [8] was 98.5%. For the same compound, the Activity [9] was 99.5%, the Activity [10] was 99.5% and the Activity (SW-620 [11]) was “Active”. The Activity (SW-620 [12]) was “Dose-dependent effect”, the Activity [13] was 110% and the Activity [14] was 110%. It also gave an Activity [15] of 106%, an Activity [16] of 142% and an Activity [17] of 102%. The Activity [18] was 116%, the Activity [19] was 104% and the Activity [20] was 110%. The Activity [21] was 100%, the Activity [22] was “Non-Toxic” and the viability at 0.1 µM (HCT-116 [23]) was 39%. The Activity (HCT-116 [24]) was 46.2%.
